We go through eight molecules from patent US20090062326A1, “M3 MUSCARINIC RECEPTOR ANTAGONISTS FOR TREATMENT OF M3 MUSCARINIC RECEPTOR-EXPRESSING TUMORS” (priority 2006, published 2009).

Where two headings read alike, the source gives them in different places.

One data set relates to SCLC cell line H82. Kind of data set: H82 cell proliferation with subtype-selective mAChR antagonists. The class given is cell-based, human. As to the method: (§1) For in vitro cell proliferation assays, cells were suspended at a concentration of 50,000 cells/ml and pipetted up and down to break up cell clumps. 100 μl cell suspension was added to each well of a 96-well plate. 100 μl darifenacin at concentrations of 2×10^−5, 2×10^−6, 2×10^−7, 2×10^−8, 2×10^−9 M and vehicle control were then added to wells. Every three days, half the volume of the media was changed and at 0, 3, 6, 9 and 12 days, cell number was determined with the Cell-Titer Blue reagent (Promega, Madison Wis.) which measures the production of the fluorescent product of resorufin from resazurin by metabolically active cells.

The test system of data set [1] is H82 cells. The data set can be described thus: H82 SCLC tumor growth in nude mice, subcutaneous minipump. It is filed as in vivo, mouse. Here is the method:
Mice (NU/NU, Charles River Laboratories) were injected with SCLC tumor cells (NCI-H82 cells, American Type Culture Collection (ATCC); Manassas, Va.), treated with drug and tumor growth monitored. The H82 cells express M3 muscarininc receptor (see Song et al., Cancer Res. 63:214-21, 2003). Nude mice, 5-7 weeks old were housed in a pathogen-free room in microisolators with autoclaved bedding, and fed autoclaved rodent chow and water.
H82 cells were first grown in RPMI-1640+ITS (insulin (5 μg/ml), transferrin (5 μg/ml), sodium selenite (5 ng/ml)). Cells were collected, centrifuged and resuspended in fresh RPMI-1640+ITS at a concentration of 5×10^6 cell/0.25 ml. Cells were then mixed with an equal volume of matrigel (BD Biosciences) to give a final concentration of 5×10^6 cell/0.5 ml and 0.5 ml of this cell suspension was then injected subcutaneously into the right flank of each mouse.
(§2) Tumors were allowed to grow for one week, then drug administration was initiated and continued for the next 4 weeks. Drugs were administered by subcutaneously-implanted osmotic minipumps (Alzet model# 2004). Atropine and darifenacin were dissolved in 50% DMSO/50% phosphate-buffered saline. Atropine was delivered at a dose of 10 mg/kg per day; darifenacin (Novartis Pharma AG, Basel, Switzerland) was delivered at doses of 0.3, 1.0 and 3.0 mg/kg per day. Control animals received minipumps filled with 50% DMSO/50% phosphate-buffered saline.
(§3) Tumor volume was determined weekly by measuring with calipers (volume=height×width×depth). Mice were euthanized after 4 weeks of drug administration. 10 animals were used per group. At sacrifice tumors were removed and weighed. Part of the tumor was fixed for histologic examination of tumor morphology and part was frozen for RNA and protein analyses.

The test system of a further data set is MAPK phosphorylation. The data set can be described thus: MAPK phosphorylation in tumors removed from treated mice. The class given is in vivo, mouse. The following applies: tumors removed from darifenacin-treated mice. Here is the method:
as §3
(§4) ACh content of control tumor samples was 420±110 pmol/g which, corresponds to 4×10^−7 M, assuming uniform distribution in the tumor. These levels of ACh are high enough to increase MAPK phosphorylation.

The nature of data set [2]: plasma darifenacin concentration in nude mice. The following applies: s.c. minipump; for concentration at 4 weeks: mouse, plasma, sc. The class given is in vivo, mouse. As to the method: FIG. 4 is a bar graph showing the relation of nude mouse darifenacin dose to concentration of darifenacin achieved in mouse blood. Dashed lines show concentration of darifenacin obtained in humans treated with 30 mg extended release darifenacin per day.
as §2
Thus significant reduction in SCLC growth can be achieved at clinically relevant doses of M3 mAChR antagonists.

The test system of a further data set is Akt phosphorylation. The data set can be described thus: Akt phosphorylation in tumors removed from treated mice. The class given is in vivo, mouse. The following applies: tumors removed from darifenacin-treated mice. As to the method:
as §3, §4

The test system of the next data set is SCLC cell lines. The data set can be described thus: in vitro cell proliferation assay (Cell-Titer Blue). The class given is cell-based, human. Here is the method:
SCLC cell lines (HA-E, SV-E, LV-E, BK-T, HG-E, AD-A, LD-T, H69 (HTB-119), H82 (HTB-175), H146 (HTB 173), H187 (CRL-5804), H524 (CRL-5831), H526 (CRL-5811), H740 (CRL-5840), H841 (CRL-5845), H1048 (CRL-5853), H1105 (CRL-5856), H1417 (CRL-5869), H1694 (CRL-5888). H1836 (CRL-5898), H1876 (CRL-5902), H2029 (CRL-5913), H2195 (CRL-5931), and H2198 (CRL-5933)), were grown in RPMI 1640 medium (Mediatech, Herndon Va.) supplemented with 0-10% fetal bovine serum (Hyclone, Logan, Utah) and ITS (5 μg/ml insulin, 5 μg/ml transferrin, 5 ng/ml sodium selenite (BD Biosciences, San Jose, Calif.)) plus 100 units/ml penicillin, […] streptomycin, and […] amphotericin (Invitrogen, Carlsbad Calif.) at 37° C. in a humidified 5% CO2 atmosphere.
as §1

A short description of data set [3]: overall animal weight of treated nude mice. The class given is in vivo, mouse. The following applies: darifenacin treatment. Here is the method:
as §2

Data set [4] relates to H82 cells. Kind of data set: H82 tumors in nude mice receiving nicotine (planned). It is filed as in vivo, mouse. The following applies: nicotine 2.0 mg/kg/day by minipump. Here is the method: Nude mice are administered H82 cells as described in Example 3. […] Nicotine (nicotine bitartrate, Sigma) is dissolved in water at a concentration to deliver 2.0 mg/kg/day; and will be administered by a second minipump. Tumor volume will be determined weekly as described in the Examples above, and mice euthanized after 4 weeks of drug administration. At sacrifice tumors are removed and weighed. Part of the tumor can be fixed for histologic examination of tumor morphology and part frozen for RNA and protein analyses.

The next data set deals with H82 SCLC cells. The following applies: H82 SCLC cells incubated with nicotine; FIG. 6. As to the method: H82 SCLC cells were incubated with nicotine for the times shown and secretion of ACh into the medium was measured.
Data set [5] deals with lung, pancreas and esophagus. As to conditions: nicotine for 3 weeks vs control mice.
Procedure: At the end of 3 weeks, bromodeoxy uridine (BrdU) will be injected ip, 50 mg/kg, then 24 hours later mice will be sacrificed and selected tissues removed to measure cell proliferation. Tissues removed will include lung, pancreas and esophagus, tumors of which are associated with smoking. Tissues will be sectioned and BrdU incorporation into cells determined so as to determine the number of replicating cells per section.
[6] abbreviates: up to 10^−5 mol/L, nine days of treatment.

In the case of `C[N+]1(C)CCC(OC(=O)C(c2ccccc2)c2ccccc2)CC1.[I-]` [4-DAMP, 4-diphenylacetoxy-N-methylpiperidine methiodide], the H82 cell proliferation entry in the data set on SCLC cell line H82 (10^−9 mol/L to 10^−5 mol/L, after nine days) is “significantly reduced cell proliferation”.
As to `CCN(CC)CC1CCCCN1CC(=O)N1c2ccccc2C(=O)Nc2cccnc21` (centres unmarked) [AFDX-1116], in the data set with SCLC cell line H82 (setting [6]), the H82 cell proliferation result is “no detectable effect”.
Regarding `Cl.O[Si](CCCN1CCCCC1)(c1ccc(F)cc1)C1CCCCC1` (centres unmarked) [P-F-HHSiD, hexahydro-sila-difenidol hydrochloride, p-fluoro analog], in the data set on SCLC cell line H82 (10^−5 mol/L, after nine days), the H82 cell proliferation entry was “significantly reduced cell proliferation”.
For the molecule `CN1[C@@H]2CC[C@H]1C[C@@H](OC(=O)C(CO)c1ccccc1)C2` (some centres unmarked) [atropine], the “tumor growth (tumor weight)” value with H82 cells [1] (10 mg/kg per day s.c. minipump, weeks 1-5, FIG. 5) was “do not reduce or inhibit tumor growth”.
Turning to `NC(=O)C(c1ccccc1)(c1ccccc1)[C@@H]1CCN(CCc2ccc3c(c2)CCO3)C1` [darifenacin, (S)-2-{1-[2-(2,3-dihydrobenzofuran-5-yl)ethyl]-3-pyr-rolidinyl}-2,2-diphenyl-acetamide], in the data set with MAPK phosphorylation, the “levels of MAPK phosphorylation in the tumors” value was “significantly decreased”. Besides, the concentration at 4 weeks in data set [2] (3 mg/kg per day, read-out: average plasma darifenacin concentration at which tumor growth was reduced) was 9.4 ± 0.3 ng/mL; in [2] (FIG. 4, read-out: plasma darifenacin concentrations at which inhibition of tumor growth was achieved) it was 3 to 10 ng/mL. In addition, in [2], the “average plasma darifenacin concentration” value was about 25 nM. Moreover, the “average plasma darifenacin concentration at which tumor growth was reduced” value in [2] is 9.4 ± 0.97 ng/mL. Further, in the data set on H82 cells [1] (0.3, 1.0 and 3.0 mg/kg per day s.c. minipump, weeks 1-5, FIG. 2), the “tumor size (volume by calipers)” value was “dosewise-reduction”. Besides, the “histology of tumor cells compared to controls” value in the data set on H82 cells [1] (highest dose of darifenacin) is “larger in size, with increased-cytoplasm and less nuclear molding”. Besides, the “inhibition of tumor size, statistics” value with H82 cells [1] (largest dose (3.0 mg/kg per day), FIG. 2) is “statistically significant”. In addition, the tumor weight entry in the data set with H82 cells [1] (tumors removed and weighed at end of 5 weeks, FIG. 3) was “significant decrease”. The “Akt phosphorylation in the tumors” value in the data set with Akt phosphorylation is recorded as “no significant effects”. Also, the “cell growth in five SCLC cell lines” value in the data set with SCLC cell lines (10 μM darifenacin, H187, H1048, H1836, H1876, H520, FIGS. 1A-E) is listed as “responsive”. In addition, in the data set with SCLC cell lines (20 SCLC cell lines tested), the “SCLC cell lines with significantly reduced proliferation” value was 14 out of 20. Moreover, the “proliferation of non-responding cell lines” value with SCLC cell lines (cell lines LV-E, AD-A, L-D-T, H69, H1417, H2198) is “not affected”. Moreover, the overall animal weight result in data set [3] was “No significant effects”.
`CN1CCCC1c1cccnc1` (centres unmarked) [nicotine]: the “effect of nicotine on tumor growth” value in the data set with H82 cells [4] is listed as “grow faster”. Also, the “acetylcholine secretion into the medium” value in the data set with H82 SCLC cells is “stimulates acetylcholine secretion”. Moreover, the “replicating cells in tissue (BrdU incorporation)” value in data set [5] is on record as “more replicating cells”.
In the case of `CN1CCN(CC(=O)N2c3ccccc3C(=O)Nc3cccnc32)CC1` [pirenzepine], the H82 cell proliferation entry in the data set on SCLC cell line H82 (setting [6]) is “no detectable effect”.
In the case of `O=C(O[C@H]1C[C@H]2CC[C@@H](C1)[N+]21CCCC1)C(O)(c1ccccc1)c1ccccc1` [trospium], the tumor growth entry in the data set with H82 cells [1] (stated for nonselective antagonists, no dose or test described) is listed as “do not reduce or inhibit tumor growth”.
